Data published in patent US20050059977A1, “Monitoring circadian activity” (priority 2003, published 2005).

Key:
pineal gland = test: In vivo pineal microdialysis with drug infusion through the dialysis membrane; on-line HPLC of melatonin and serotonin (5-HT) secretion; design: species or system rat
Procedure: Adult Sprague Dawley male rats (220-225 g) were house at 20-25° C. with lights on at 11 am (LD 14:10). Food and were available ad libitum throughout the experiment. Illumination was supplied by white fluorescent lamps (600 lux at cage level). Rats were placed in the LD cycles for at least 2 weeks before the start of surgery.
The animals were deeply anesthetized with a combination of Ketamine (10 mg/ml, 0.5 ml/100 g weight, i.p.) and Xylazine (2 mg/ml, 0.5 ml/100 g weight, i.p.). The animals' heads were shaved and positioned in a stereotaxic instrument. A longitudinal incision (approximately 2.5 cm) is made along the midline in the skin from anterior (level of the eyes) to posterior (base of the skull). The sagittal and lambdoid sutures were then exposed by scraping away the periosteum to the temporal muscles. […] The dura was exposed after grinding away the top bone, which was removed using iris forceps after making a cross cut with a scalpel blade (FIG. 1B). […] Bleeding was controlled with cotton wool pledget, or flushed with water and suctioned. Three stainless steel screws were placed nearby in the parietal and frontal bones to serve as anchors. After the animal's head was repositioned 30 degrees downward, the dura matter below the confluence of sinuses was then lifted 5 mm with a hook fixed to the stereotaxic frame (FIG. 1C). The dorsal cerebellum was then pressed downward with a glass blunt tube to expose the pineal gland. The tentorium cerebelli which covers the posterior surface of the pineal and connects to the confluence of the sinuses, was then carefully reflected to visualize the pineal with a micro sharp hook, while the bleeding around the pineal was flushed and suctioned. The pineal vein is visible in the midline of the pineal posterior surface (FIG. 1D) which divides the pineal gland into two parts and drains it to the confluence of the sinuses. The tip of the guide cannula (CMA Microdialysis, N. Chelmsford, Mass.) was then positioned adjacent to either side of the exposed pineal before the skull was closed with dental cement. The rats were allowed to recover for 24 hours before experimentation.
(§1) Pineal microdialysis was carried out as follows. Immediately before sampling, the rat was anesthetized with halothane briefly, the stylet (or dummy probe) was replaced with a microdialysis proble (CMA12, 20 KD cut off, membrane length 4 mm)(CMA Microdialysis, N. Chelmsford, Mass.) and fixed with plastic glue. The dialysis probe was continuously infused via the microbore PEEK tubing (0.65 mm OD, 0.12 mm ID) at a flow rate of 2 ul/min with artificial CSF (Harvard, Holliston, Mass.). Samples were collected at 10 minutes intervals via the PEEK tube into a 20 ul loop of Pollen 8 automatic injector (BAS, West Lafayette, Ind.), which was on-line with the HPLC system. The sample loop was set to be retained in the load position during the 10 minute cycles and was automatically switched to the injection positions briefly, after which the cycle was repeated. The rats were linked to the apparatus for dialysis through a quartz dual channel swivel (Harvard/Instech, Boston, Mass.) to prevent the tubing from entanglement. […]
The analytical condition for the simultaneous detection of 5-HT/NAS/melatonin was based on Drijffiout et al. (J. Neurochem. 61: 936-942 (1993)) with minor modifications. A Shimadzu pump (Shimadzu, Columbia, USA) was used in conjunction with a Shimadzu fluorescence detector (FD, excitation: 280 nm, emission: 345 nm). […]

NAT = test: Pineal in situ hybridization for NAT RNA after drug infusion by microdialysis; type: in vivo, rat
Procedure: as §1, with “entanglement. All pharmacological agents with molecular weights less than […] were delivered to the pineal through the microdialysis tubing. All drugs were infused after dissolving in artificial CSF solution at final concentrations indicated and for the duration described in the figure legends.” for “entanglement.”

[1] = ISO 1 uM infused into pineal for 2.5 hours during the day (14:30 to 17:00), days 7-10 of microdialysis, single rat
[2] = dibutyryl cAMP 10 mM infused through the microdialysis tube during the day

SMILES: CC(C)NCC(O)c1ccc(O)c(O)c1 (stereo not shown) [ISO, Isoprenaline]
- effect on serotonin (5-HT) output as melatonin output increases (pineal gland; [1]): decreases in a perfectly inverse manner
- time after ISO treatment at which melatonin reaches a maximum (pineal gland; [1]): 2 h
- time after ISO withdrawal within which melatonin decreases (pineal gland; [1]): ≤ 1 h
- time after infusion at which melatonin levels begin to increase (pineal gland; [1]): 1 h
- NAT RNA expression in pineal sections (in situ hybridization) (NAT; ISO 1 uM infused through dialysis membrane during the day, 12th day of microdialysis, n=5 rats): restricted to the region surrounding the probe membrane

SMILES: CCCC(=O)Nc1ncnc2c1ncn2[C@@H]1O[C@@H]2COP(=O)(O)O[C@H]2[C@H]1OC(=O)CCC [dibutyryl-cAMP]
- melatonin production (pineal gland; [2]): activated
- NAT gene induction in pineal sections (in situ hybridization) (NAT; [2]): NAT gene induction is detected
